Data reported in patent publication US12245993B2, “Vitamin K2 microcapsule, preparation method thereof and use thereof in manufacture of medicament for preventing or treating cardiovascular and cerebrovascular diseases” (Xiamen Kingdomway Biotech. Co., Ltd., priority 2020, dated 2025).

Assay: Determination of stability of vitamin K2 microcapsules (light, oxygen, high temperature)
Assay type: physicochemical
Experimental: (2) Test Method The samples and the reference samples were respectively put into sealed colorless and transparent vials, and placed under the conditions of 4500Lx light intensity irradiation, oxygen filling (25° C.), and stored at 60° C. (incubator) for 15 days, respectively; and they were subjected to sampling on Day 0, Day 5, Day 10, Day 15, and VK2 contents thereof were determined by USP method. The effects of light, oxygen, and temperature conditions on the labeled content (%) of VK2 were investigated.

Labeled content of VK2 (%) (60° C. (incubator), Day 0): 100.0%
Labeled content of VK2 (%) (60° C. (incubator), Day 5): 96.2%
Labeled content of VK2 (%) (60° C. (incubator), Day 10): 94.8%
Labeled content of VK2 (%) (60° C. (incubator), Day 15): 90.4%
Labeled content of VK2 (%) (4500 Lx illumination, Day 0): 100.0%
Labeled content of VK2 (%) (4500 Lx illumination, Day 5): 89.2%
Labeled content of VK2 (%) (4500 Lx illumination, Day 10): 74.3%
Labeled content of VK2 (%) (4500 Lx illumination, Day 15): 60.3%
Labeled content of VK2 (%) (Oxygen filling (25° C.), Day 0): 100.0%
Labeled content of VK2 (%) (Oxygen filling (25° C.), Day 5): 93.5%
Labeled content of VK2 (%) (Oxygen filling (25° C.), Day 10): 89.4%
Labeled content of VK2 (%) (Oxygen filling (25° C.), Day 15): 81.2%
Substance: Vitamin K2 [Reference sample 4]
